The source of these data is patent US12201635B2, “Multi-target kinase inhibitor, pharmaceutical composition, and preparation method for multi-target kinase inhibitor and use thereof” (GUANGZHOU LIUSHUN BIOTECHNOLOGY CO., LTD., priority 2019, dated 2025).

In one test the target is PDGFRA (Homo sapiens, UniProt P16234). Briefly: Z'-LYTE kinase inhibition assay, PDGFRA. Type of test: biochemical. On the procedure:
(§1) 1. The compounds to be detected were accurately weighed and added into DMSO to form stock solutions, which were then diluted to desired concentrations with a buffer to give solutions of the compounds to be detected.
(§2) 2. An RET or VEGFR3 or PDGFRA kinase solution, corresponding substrate solutions of Z′-LYTE, a buffer or a compound to be detected and ATP were added into a 384 reaction vessel, and reacted at room temperature for 1 h.
(§3) 3. To each well was added a fluorescence enhancer, followed by incubation at room temperature for 1 h.
(§4) 4. Data were read separately using a fluorescence analyzer.
(§5) 1. The relative inhibitory rate for each well was calculated according to a formula.
(§6) 2. Active samples were diluted and tested for relative inhibitory rates, and the inhibitory rates IC50 were calculated by plotting in the software Xlfit.

A further test addresses RET (Homo sapiens, UniProt P07949). The test can be described thus: Z'-LYTE kinase inhibition assay, RET. Type of test: biochemical. On the procedure:
as §1, §2, §3, §4, §5, §6

For a further test, the target named is VEGFR3 (Homo sapiens, UniProt P35916). Briefly: Z'-LYTE kinase inhibition assay, VEGFR3. Type of test: biochemical. On the procedure:
as §1, §2, §3, §4, §5, §6

In a further test the test system is SMMC-7721 hepatoma. Briefly: In vivo anti-tumor activity, nude mouse tumor model of SMMC-7721 liver cancer. Particulars: SMMC-7721 liver cancer mice. An excerpt: (§7) In this example, the in vivo anti-tumor activity (liver cancer/esophageal cancer) of the multi-target kinase inhibitor [Compound (I-1)] was investigated according to the requirements in Guidelines for Pharmacodynamics of Anti-tumor Drugs. The experimental procedures and results are as follows:
(§8) Tumor models of nude mice were established using […] heptoma cells and KYSE 410 esophageal cancer cells that meet modeling conditions. The modeled mice were divided into 5 groups: a model group, a Compound (I-1) 5 mg/kg group, a Compound (I-1) 10 mg/kg group, a Compound (I-1) 20 mg/kg group, and a positive control group (sorafenib or cabozantinib). Administration was performed from the day of grouping that was counted as day 1 and for 21 consecutive days, and the 21st day was counted as day21. Tumor volumes were measured twice a week during the period of administration for statistical test.

Test [1] relates to KYSE 410 esophageal cancer. Briefly: In vivo anti-tumor activity, nude mouse tumor model of KYSE 410 esophageal cancer. Particulars: KYSE 410 esophageal cancer mice.
From the text: as §7, §8

Setting [2] is: 5, 10 and 20 mg/kg, 21 consecutive days, day21 ANOVA P<0.0001.
Where [3] appears, read: 10 and 20 mg/kg, positive control sorafenib or cabozantinib.

Broadly, the IC50 is the concentration that gives 50% inhibition.

PDGFRA, sequence (P16234 24-1089): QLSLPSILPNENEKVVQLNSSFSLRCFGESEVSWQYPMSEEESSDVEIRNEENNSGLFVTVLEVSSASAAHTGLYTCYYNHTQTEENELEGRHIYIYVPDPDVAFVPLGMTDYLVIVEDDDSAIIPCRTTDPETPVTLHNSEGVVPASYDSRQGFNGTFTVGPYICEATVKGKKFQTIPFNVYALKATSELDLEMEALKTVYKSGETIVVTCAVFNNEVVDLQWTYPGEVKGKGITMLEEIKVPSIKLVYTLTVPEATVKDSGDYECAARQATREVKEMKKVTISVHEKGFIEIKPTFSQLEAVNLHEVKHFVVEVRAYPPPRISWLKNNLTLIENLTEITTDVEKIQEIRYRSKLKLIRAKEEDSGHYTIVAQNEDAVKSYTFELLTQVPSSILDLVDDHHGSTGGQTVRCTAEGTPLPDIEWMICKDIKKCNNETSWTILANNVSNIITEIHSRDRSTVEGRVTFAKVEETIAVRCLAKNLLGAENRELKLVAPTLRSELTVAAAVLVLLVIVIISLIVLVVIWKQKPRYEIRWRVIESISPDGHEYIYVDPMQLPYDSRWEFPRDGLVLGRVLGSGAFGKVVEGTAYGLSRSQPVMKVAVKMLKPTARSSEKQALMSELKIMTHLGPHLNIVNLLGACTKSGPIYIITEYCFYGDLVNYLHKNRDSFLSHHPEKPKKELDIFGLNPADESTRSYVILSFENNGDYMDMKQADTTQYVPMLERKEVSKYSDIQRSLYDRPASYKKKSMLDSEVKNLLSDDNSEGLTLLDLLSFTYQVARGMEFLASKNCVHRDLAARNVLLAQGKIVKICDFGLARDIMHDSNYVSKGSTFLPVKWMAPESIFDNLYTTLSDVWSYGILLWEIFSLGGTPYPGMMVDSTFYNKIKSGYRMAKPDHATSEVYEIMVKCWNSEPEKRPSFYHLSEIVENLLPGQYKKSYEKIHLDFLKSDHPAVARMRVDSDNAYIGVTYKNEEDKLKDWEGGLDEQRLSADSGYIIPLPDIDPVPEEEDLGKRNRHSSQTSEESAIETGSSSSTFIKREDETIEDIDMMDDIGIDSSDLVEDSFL
RET, sequence (P07949 29-1114): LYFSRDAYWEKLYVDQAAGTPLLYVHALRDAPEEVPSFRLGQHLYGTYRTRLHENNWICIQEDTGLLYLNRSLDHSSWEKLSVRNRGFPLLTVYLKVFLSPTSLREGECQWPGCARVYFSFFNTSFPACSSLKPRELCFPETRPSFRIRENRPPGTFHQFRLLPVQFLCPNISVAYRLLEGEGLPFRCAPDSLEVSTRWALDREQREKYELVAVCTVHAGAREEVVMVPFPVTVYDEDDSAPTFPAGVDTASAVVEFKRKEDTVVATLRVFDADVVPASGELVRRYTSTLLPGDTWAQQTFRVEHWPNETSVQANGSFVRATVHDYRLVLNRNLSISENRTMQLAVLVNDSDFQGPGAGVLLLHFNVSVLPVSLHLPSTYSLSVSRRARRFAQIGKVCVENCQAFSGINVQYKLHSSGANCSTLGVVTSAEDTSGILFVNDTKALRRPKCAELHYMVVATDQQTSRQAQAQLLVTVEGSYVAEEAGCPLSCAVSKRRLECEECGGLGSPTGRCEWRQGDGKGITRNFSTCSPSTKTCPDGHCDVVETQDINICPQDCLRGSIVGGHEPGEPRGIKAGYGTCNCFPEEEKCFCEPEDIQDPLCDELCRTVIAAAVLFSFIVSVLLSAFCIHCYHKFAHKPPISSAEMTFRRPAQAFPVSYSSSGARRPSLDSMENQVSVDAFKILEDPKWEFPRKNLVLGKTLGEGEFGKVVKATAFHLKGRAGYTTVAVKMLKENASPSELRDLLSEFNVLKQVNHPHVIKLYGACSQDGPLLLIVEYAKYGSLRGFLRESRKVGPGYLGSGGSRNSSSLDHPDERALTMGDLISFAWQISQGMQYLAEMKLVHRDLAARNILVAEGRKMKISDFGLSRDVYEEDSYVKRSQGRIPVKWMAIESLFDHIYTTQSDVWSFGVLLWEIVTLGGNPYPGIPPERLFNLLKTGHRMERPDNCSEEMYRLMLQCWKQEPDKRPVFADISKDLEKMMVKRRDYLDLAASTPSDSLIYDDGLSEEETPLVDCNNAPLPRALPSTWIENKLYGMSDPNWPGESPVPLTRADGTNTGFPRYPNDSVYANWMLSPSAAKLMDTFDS
VEGFR3, sequence (P35916 25-1363): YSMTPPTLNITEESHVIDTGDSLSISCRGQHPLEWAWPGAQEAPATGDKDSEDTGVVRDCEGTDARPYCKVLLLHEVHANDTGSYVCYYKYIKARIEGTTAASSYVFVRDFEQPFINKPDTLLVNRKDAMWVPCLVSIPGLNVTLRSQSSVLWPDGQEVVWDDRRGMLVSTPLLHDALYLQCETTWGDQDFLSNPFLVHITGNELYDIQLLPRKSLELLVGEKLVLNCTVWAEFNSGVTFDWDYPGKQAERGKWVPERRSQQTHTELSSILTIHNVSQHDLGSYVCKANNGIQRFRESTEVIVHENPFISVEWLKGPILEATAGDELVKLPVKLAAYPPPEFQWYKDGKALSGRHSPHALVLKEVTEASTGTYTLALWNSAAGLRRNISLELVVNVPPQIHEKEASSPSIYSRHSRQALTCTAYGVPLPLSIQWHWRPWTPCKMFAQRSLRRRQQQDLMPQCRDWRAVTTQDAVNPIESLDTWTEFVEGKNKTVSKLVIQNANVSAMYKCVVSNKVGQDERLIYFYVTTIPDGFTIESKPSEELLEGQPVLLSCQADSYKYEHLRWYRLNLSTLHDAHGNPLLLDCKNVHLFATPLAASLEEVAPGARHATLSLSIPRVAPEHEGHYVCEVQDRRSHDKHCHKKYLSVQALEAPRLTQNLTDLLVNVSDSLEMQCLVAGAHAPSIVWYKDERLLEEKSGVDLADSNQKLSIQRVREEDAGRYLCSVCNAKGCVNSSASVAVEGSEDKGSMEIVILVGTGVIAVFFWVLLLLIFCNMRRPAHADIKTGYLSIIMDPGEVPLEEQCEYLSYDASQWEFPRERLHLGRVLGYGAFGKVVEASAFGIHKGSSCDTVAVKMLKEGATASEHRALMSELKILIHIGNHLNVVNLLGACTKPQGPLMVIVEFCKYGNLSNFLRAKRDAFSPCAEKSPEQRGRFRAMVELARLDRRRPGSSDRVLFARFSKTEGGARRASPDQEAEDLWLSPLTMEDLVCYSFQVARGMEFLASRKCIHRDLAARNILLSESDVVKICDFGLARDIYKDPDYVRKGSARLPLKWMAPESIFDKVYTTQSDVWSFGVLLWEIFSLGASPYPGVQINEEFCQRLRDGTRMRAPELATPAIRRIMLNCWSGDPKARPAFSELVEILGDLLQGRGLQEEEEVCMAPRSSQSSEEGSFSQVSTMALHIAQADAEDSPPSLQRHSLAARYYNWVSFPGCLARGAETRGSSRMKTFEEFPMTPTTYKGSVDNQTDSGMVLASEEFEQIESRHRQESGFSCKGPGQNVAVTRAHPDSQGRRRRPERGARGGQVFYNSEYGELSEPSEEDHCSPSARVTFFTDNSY

In the case of `COc1cc2ncnc(Oc3ccc(NC(=O)N4CCCC4)cc3)c2cc1OC` [Compound I-5], the results for the half-maximal inhibitory concentration (IC50) on PDGFRA, against RET and on VEGFR3 were 0.124 µM, 0.102 µM and 0.213 µM, respectively.
The like results for `COc1cc2ncnc(Oc3ccc(NC(=O)NC4CCCC4)cc3)c2cc1OC` [Compound I-3] were, in that order, 0.062 µM, 0.085 µM and 0.009 µM.
With `COc1cc2ncnc(Oc3ccc(NC(=O)NC4CC4)cc3)c2cc1OC` [Compound I-1], the half-maximal inhibitory concentration (IC50) at PDGFRA turned out to be 0.06 µM; at RET it was 0.012 µM; at VEGFR3, 0.03 µM. For the same compound, the “Tumor volume compared with the model group” value (in the test on SMMC-7721 hepatoma (setting [2]); in test [1] (setting [2])) was “lower tumor volumes” in each case. Moreover, the “Tumor volume compared with the positive control group” value (in the test on SMMC-7721 hepatoma (setting [3]); in test [1] (setting [3])) was “lower tumor volumes” each time.
For `C=CNC(=O)Nc1ccc(Oc2ncnc3cc(OC)c(OC)cc23)cc1` [Compound I-4], the half-inhibitory concentration (IC50) was 0.052 µM at PDGFRA, 0.026 µM against RET and 0.065 µM against VEGFR3.
With `COc1cc2ncnc(Oc3ccc(NC(=O)N4CCCCC4)cc3)c2cc1OC` [Compound I-6], the 50% inhibitory concentration (IC50) at PDGFRA was 0.632 µM; on RET, 0.251 µM; at VEGFR3 it was 0.328 µM.
For `COc1cc2ncnc(Oc3ccc(NC(=O)NC4CCC4)cc3)c2cc1OC` [Compound I-2], in that order: 0.308 µM, 0.037 µM and 0.016 µM.
